From ChEMBL document CHEMBL1697731, “Cheminformatics analysis of assertions mined from literature that describe drug-induced liver injury in different species” (Chem Res Toxicol, 2010) come the findings set out here.

Data set [1] has as its system Hepatotoxicity. Description: Literature-mined compound from Fourches et al multi-species drug-induced liver injury (DILI) dataset, effect in humans. To be noted: human.
The subject of data set [2] is Hepatotoxicity. Description: Literature-mined compound from Fourches et al multi-species drug-induced liver injury (DILI) dataset, effect in rodents. As to conditions: rodentia.
Data set [3] deals with Hepatotoxicity. Description: Literature-mined compound from Fourches et al multi-species drug-induced liver injury (DILI) dataset, effect in non-rodents.

Regarding `CN[C@H]1CC[C@@H](c2ccc(Cl)c(Cl)c2)c2ccccc21` [SERTRALINE], the Hepatotoxicity entry in data set [1] (Liver) is on record as “drug-induced liver injury reported”; in data set [2] (Liver) it was “drug-induced liver injury reported”; in data set [3] (Liver), “no drug-induced liver injury reported”.
With `CN(C)[C@@H]1C(O)=C(C(N)=O)C(=O)[C@@]2(O)C(O)=C3C(=O)c4c(O)cccc4[C@@](C)(O)[C@H]3C[C@@H]12` [TETRACYCLINE], the Hepatotoxicity result in data set [1], in data set [2] and in data set [3] was “drug-induced liver injury reported” each time.
On to `CN1C(=O)NC(=O)C(C)(C2=CCCCC2)C1=O` (stereo not drawn) [HEXOBARBITAL], for which the Hepatotoxicity entry was “no drug-induced liver injury reported” in data set [1], “drug-induced liver injury reported” in data set [2] and “no drug-induced liver injury reported” in data set [3].
As for `Oc1cc(Cl)ccc1Oc1ccc(Cl)cc1Cl` [TRICLOSAN], the Hepatotoxicity result in data set [1] is “no drug-induced liver injury reported”; in data set [2] it was “drug-induced liver injury reported”; in data set [3], “no drug-induced liver injury reported”.
Take `CC(C)c1c(C(=O)Nc2ccccc2)c(-c2ccccc2)c(-c2ccc(F)cc2)n1CC[C@@H](O)C[C@@H](O)CC(=O)O` [ATORVASTATIN]: the Hepatotoxicity result in data set [1] (Liver), in data set [2] (Liver) and in data set [3] (Liver) was “drug-induced liver injury reported” each time.
Take `CN(C)c1ccc(O)c2c1C[C@H]1C[C@H]3[C@H](N(C)C)C(O)=C(C(N)=O)C(=O)[C@@]3(O)C(O)=C1C2=O` [MINOCYCLINE]: the Hepatotoxicity result in data set [1] was “drug-induced liver injury reported”; in data set [2], “drug-induced liver injury reported”; in data set [3] it was “no drug-induced liver injury reported”.
For `CC(=O)Nc1ccc(OC(=O)c2ccccc2OC(C)=O)cc1` [BENORILATE], the Hepatotoxicity result in data set [1] was “no drug-induced liver injury reported”; in data set [2], “drug-induced liver injury reported”; in data set [3], “no drug-induced liver injury reported”.
In the case of `CN1CCN2c3ncccc3Cc3ccccc3C2C1` (stereo not drawn) [MIRTAZAPINE], the Hepatotoxicity entry is given as “drug-induced liver injury reported” in data set [1], “no drug-induced liver injury reported” in data set [2] and “no drug-induced liver injury reported” in data set [3].
With `C=C1/C(=C\C=C2/CCC[C@]3(C)[C@@H]([C@H](C)CCCC(C)(C)O)CC[C@@H]23)C[C@@H](O)C[C@@H]1O` [CALCITRIOL], the values for the Hepatotoxicity entry in data set [1], in data set [2] and in data set [3] were “drug-induced liver injury reported”, “drug-induced liver injury reported” and “no drug-induced liver injury reported”, respectively.
For `COc1cc(C2Oc3cc([C@H]4Oc5cc(O)cc(O)c5C(=O)[C@@H]4O)ccc3OC2CO)ccc1O` (stereo partly drawn) [SILIBININ], the Hepatotoxicity result in data set [1] is “drug-induced liver injury reported”; in data set [2], “drug-induced liver injury reported”; in data set [3] it was “no drug-induced liver injury reported”.
On to `c1ccc(-c2ccc(C(c3ccccc3)n3ccnc3)cc2)cc1` (stereo not drawn) [BIFONAZOLE], for which the Hepatotoxicity entry in data set [1] is recorded as “no drug-induced liver injury reported”; in data set [2], “drug-induced liver injury reported”; in data set [3], “no drug-induced liver injury reported”.
For `CCN(CC)C(=S)[S][Na]` [DITIOCARB SODIUM], the Hepatotoxicity result in data set [1] is reported as “no drug-induced liver injury reported”; in data set [2], “drug-induced liver injury reported”; in data set [3] it was “no drug-induced liver injury reported”.
With `NC1=NC(=O)C(c2ccccc2)O1` (stereo not drawn) [PEMOLINE], the Hepatotoxicity result in data set [1] was “drug-induced liver injury reported”; in data set [2], “no drug-induced liver injury reported”; in data set [3], “no drug-induced liver injury reported”.
With `CC(C)Cc1ccc(C(C)C(=O)O)cc1` (stereo not drawn) [IBUPROFEN], the Hepatotoxicity result is listed as “drug-induced liver injury reported” in data set [1], “drug-induced liver injury reported” in data set [2] and “no drug-induced liver injury reported” in data set [3].
As to `CC1(C)O[C@@H]2C[C@H]3[C@@H]4CCC5=CC(=O)C=C[C@]5(C)[C@@]4(F)[C@@H](O)C[C@]3(C)[C@]2(C(=O)CO)O1` [TRIAMCINOLONE ACETONIDE], the Hepatotoxicity result is recorded as “no drug-induced liver injury reported” in data set [1], “drug-induced liver injury reported” in data set [2] and “no drug-induced liver injury reported” in data set [3].
On to `[H]/N=C(\N/C(=N/[H])Nc1ccc(Cl)cc1)NC(C)C` [PROGUANIL], for which the Hepatotoxicity result in data set [1] is recorded as “drug-induced liver injury reported”; in data set [2], “no drug-induced liver injury reported”; in data set [3], “no drug-induced liver injury reported”.
Regarding `Cc1cnc(NCCCN(C)C)c2c1[nH]c1ccc3cc(O)ccc3c12` [INTOPLICINE], the results for the Hepatotoxicity result in data set [1], in data set [2] and in data set [3] were “drug-induced liver injury reported”, “no drug-induced liver injury reported” and “no drug-induced liver injury reported”, respectively.
As to `C[C@]12C=CC(=O)C=C1CC[C@H]1[C@@H]3C[C@@H](O)[C@](O)(C(=O)CO)[C@@]3(C)C[C@H](O)[C@@]12F` [TRIAMCINOLONE], the values for the Hepatotoxicity result in data set [1], in data set [2] and in data set [3] were “no drug-induced liver injury reported”, “drug-induced liver injury reported” and “no drug-induced liver injury reported”, respectively.
With `C[C@H](CCC(=O)O)[C@H]1CC[C@H]2[C@@H]3[C@H](O)C[C@@H]4C[C@H](O)CC[C@]4(C)[C@H]3CC[C@]12C` [CHENODIOL], the Hepatotoxicity result in data set [1], in data set [2] and in data set [3] was “drug-induced liver injury reported” throughout.
For POLYMYXIN B, the Hepatotoxicity entry in data set [1] is given as “drug-induced liver injury reported”; in data set [2], “drug-induced liver injury reported”; in data set [3], “no drug-induced liver injury reported”.
Regarding `NC(=O)C[S+]([O-])C(c1ccccc1)c1ccccc1` (stereo not drawn) [MODAFINIL], the Hepatotoxicity entry in data set [1] is listed as “drug-induced liver injury reported”; in data set [2] it was “no drug-induced liver injury reported”; in data set [3], “no drug-induced liver injury reported”.
